The assay deals with MV-4-11 cells. As to the kind of experiment: Gene expression microarray analysis (Affymetrix PrimeView) and GSEA. It is filed as cell-based, human. Also noted: RFU PODN (11730768_x_at) / Fold change /veh PODN (11730768_x_at) / RFU LINC00158 (11744669_a_at) / Fold change /veh LINC00158 (11744669_a_at) / RFU DUSP10 (11751237_a_at) / Fold change /veh DUSP10 (11751237_a_at) / RFU ID3 (11757404_x_at) / Fold change /veh ID3 (11757404_x_at) / RFU PLEKHG5 (11737974_s_at) / Fold change /veh PLEKHG5 (11737974_s_at) / RFU LRRC4B (11730491_at) / Fold change /veh LRRC4B (11730491_at) / RFU GIMAP4 (11747438_a_at) / Fold change /veh GIMAP4 (11747438_a_at) / RFU KRT8 (11758183_x_at) / Fold change /veh KRT8 (11758183_x_at) / RFU CNN1 (11734310_a_at) / Fold change /veh CNN1 (11734310_a_at) / RFU VPS37D (11726825_at) / Fold change /veh VPS37D (11726825_at) / RFU C10orf10 (11716522_x_at) / Fold change /veh C10orf10 (11716522_x_at) / RFU KIR2DL2 /// KIR2DL4 /// KIR2DL5A /// KIR2DL5B /// KIR2DS1 /// KIR2DS2 /// KIR2DS3 /// KIR2DS4 /// KIR3DL3 /// KIR3DL3 /// KIR3DS1 (11738374_at) / Fold change /veh KIR2DL2 /// KIR2DL4 /// KIR2DL5A /// KIR2DL5B /// KIR2DS1 /// KIR2DS2 /// KIR2DS3 /// KIR2DS4 /// KIR3DL3 /// KIR3DL3 /// KIR3DS1 (11738374_at) / RFU C1QL1 (11718748_at) / Fold change /veh C1QL1 (11718748_at) / RFU TMPRSS4 (11747572_a_at) / Fold change /veh TMPRSS4 (11747572_a_at) / RFU HAMP (11756126_x_at) / Fold change /veh HAMP (11756126_x_at) / RFU RNFT2 (11725882_a_at) / Fold change /veh RNFT2 (11725882_a_at) / RFU NR4A2 (11747474_a_at) / Fold change /veh NR4A2 (11747474_a_at) / RFU ABCC12 (11746883_a_at) / Fold change /veh ABCC12 (11746883_a_at) / RFU TMEM136 (11760407_x_at) / Fold change /veh TMEM136 (11760407_x_at) / RFU CLDN22 /// WWC2 (11732394_at) / Fold change /veh CLDN22 /// WWC2 (11732394_at) / RFU HLA-DPB1 (11760878_x_at) / Fold change /veh HLA-DPB1 (11760878_x_at) / RFU SPINT1 (11716480_a_at) / Fold change /veh SPINT1 (11716480_a_at) / RFU GAP43 (11754022_s_at) / Fold change /veh GAP43 (11754022_s_at) / RFU A4GNT (11735810_at) / Fold change /veh A4GNT (11735810_at) / RFU PRB3 (11715151_x_at) / Fold change /veh PRB3 (11715151_x_at) / RFU TUBB4B (11761932_at) / Fold change /veh TUBB4B (11761932_at) / RFU CAPN14 (11732068_a_at) / Fold change /veh CAPN14 (11732068_a_at) / RFU TMCC2 (11721928_a_at) / Fold change /veh TMCC2 (11721928_a_at) / RFU IRGQ (11745062_a_at) / Fold change /veh IRGQ (11745062_a_at) / RFU FAM174B (11720279_a_at) / Fold change /veh FAM174B (11720279_a_at) / RFU TMPRSS4 (11748680_a_at) / Fold change /veh TMPRSS4 (11748680_a_at) / RFU FAM212B (11763350_a_at) / Fold change /veh FAM212B (11763350_a_at) / RFU PLEKHG5 (11743358_a_at) / Fold change /veh PLEKHG5 (11743358_a_at) / RFU ZSCAN30 (11745921_a_at) / Fold change /veh ZSCAN30 (11745921_a_at) / RFU CMKLR1 (11741424_a_at) / Fold change /veh CMKLR1 (11741424_a_at) / RFU LOC101060620 /// MAPK8IP1 (11723275_at) / Fold change /veh LOC101060620 /// MAPK8IP1 (11723275_at) / RFU SPTSSB (11747773_x_at) / Fold change /veh SPTSSB (11747773_x_at) / RFU PRSS12 (11739890_at) / Fold change /veh PRSS12 (11739890_at) / RFU BIN1 (11741810_x_at) / Fold change /veh BIN1 (11741810_x_at) / RFU WNT11 (11732464_a_at) / Fold change /veh WNT11 (11732464_a_at) / RFU C10orf10 (11716521_a_at) / Fold change /veh C10orf10 (11716521_a_at) / RFU C5orf56 (11738089_at) / Fold change /veh C5orf56 (11738089_at) / RFU CYB561 (11721691_x_at) / Fold change /veh CYB561 (11721691_x_at) / RFU ANKRD19P (11752326_a_at) / Fold change /veh ANKRD19P (11752326_a_at) / RFU OR2T12 /// OR2T33 /// OR2T8 (11738714_s_at) / Fold change /veh OR2T12 /// OR2T33 /// OR2T8 (11738714_s_at) / RFU VCAN (11748164_a_at) / Fold change /veh VCAN (11748164_a_at) / RFU JSRP1 (11732532_at) / Fold change /veh JSRP1 (11732532_at) / RFU KRTAP10-11 (11738290_x_at) / Fold change /veh KRTAP10-11 (11738290_x_at) / RFU MYO3A (11730013_a_at) / Fold change /veh MYO3A (11730013_a_at) / RFU EBF3 (11725865_a_at) / Fold change /veh EBF3 (11725865_a_at) / RFU CAMK2N1 (11719241_x_at) / Fold change /veh CAMK2N1 (11719241_x_at) / RFU C5orf56 (11738088_a_at) / Fold change /veh C5orf56 (11738088_a_at) / RFU OLFML3 (11715873_a_at) / Fold change /veh OLFML3 (11715873_a_at) / RFU LOC100653217 /// NTM (11731650_a_at) / Fold change /veh LOC100653217 /// NTM (11731650_a_at) / RFU MAPK11 (11762145_a_at) / Fold change /veh MAPK11 (11762145_a_at) / RFU FIZ1 (11724087_x_at) / Fold change /veh FIZ1 (11724087_x_at) / RFU OASL (11726364_x_at) / Fold change /veh OASL (11726364_x_at) / RFU SOX15 (11748057_x_at) / Fold change /veh SOX15 (11748057_x_at) / RFU CD79A (11719716_a_at) / Fold change /veh CD79A (11719716_a_at) / RFU HIST1H1D (11736915_at) / Fold change /veh HIST1H1D (11736915_at) / RFU CASKIN2 (11723855_a_at) / Fold change /veh CASKIN2 (11723855_a_at) / RFU LOC730098 (11760151_x_at) / Fold change /veh LOC730098 (11760151_x_at) / RFU OR4N2 (11742367_at) / Fold change /veh OR4N2 (11742367_at) / RFU PRRT2 (11749266_a_at) / Fold change /veh PRRT2 (11749266_a_at) / RFU SNX32 (11753110_a_at) / Fold change /veh SNX32 (11753110_a_at) / RFU CDHR5 (11726645_a_at) / Fold change /veh CDHR5 (11726645_a_at) / RFU RCAN1 (11760418_a_at) / Fold change /veh RCAN1 (11760418_a_at) / RFU FAM167A (11723789_a_at) / Fold change /veh FAM167A (11723789_a_at) / RFU FAM26E (11764081_at) / Fold change /veh FAM26E (11764081_at) / RFU ISYNA1 (11749810_s_at) / Fold change /veh ISYNA1 (11749810_s_at) / RFU ACY1 (11761880_at) / Fold change /veh ACY1 (11761880_at) / RFU 11764098_at / Fold change /veh 11764098_at / RFU SAMD14 (11745864_x_at) / Fold change /veh SAMD14 (11745864_x_at) / RFU NPB (11741838_a_at) / Fold change /veh NPB (11741838_a_at) / RFU TMPRSS6 (11731388_a_at) / Fold change /veh TMPRSS6 (11731388_a_at) / RFU KRTAP10-2 (11738614_at) / Fold change /veh KRTAP10-2 (11738614_at) / RFU ARHGAP8 /// PRR5-ARHGAP8 (11727945_x_at) / Fold change /veh ARHGAP8 /// PRR5-ARHGAP8 (11727945_x_at) / RFU KRTAP5-7 /// NADSYN1 (11734609_at) / Fold change /veh KRTAP5-7 /// NADSYN1 (11734609_at) / RFU RASL12 (11751679_a_at) / Fold change /veh RASL12 (11751679_a_at) / RFU CDKN2B (11736163_a_at) / Fold change /veh CDKN2B (11736163_a_at) / RFU PRF1 (11729649_at) / Fold change /veh PRF1 (11729649_at) / RFU, ZNF638 /// ZNF638-IT1 / Fold change vs veh, ZNF638 /// ZNF638-IT1 / RFU, PANK3 / Fold change vs veh, PANK3 / RFU, SH3YL1 / Fold change vs veh, SH3YL1 / RFU, ZEB2 / Fold change vs veh, ZEB2 / RFU, NRIP1 / Fold change vs veh, NRIP1 / RFU, PTTG1IP / Fold change vs veh, PTTG1IP / RFU, CAPN2 / Fold change vs veh, CAPN2 / RFU, MED14 / Fold change vs veh, MED14 / RFU, SNORA58 / Fold change vs veh, SNORA58 / RFU, C1orf63 / Fold change vs veh, C1orf63 / RFU, LRRFIP1 / Fold change vs veh, LRRFIP1 / RFU, NDUFAF7 / Fold change vs veh, NDUFAF7 / RFU, SLC12A2 / Fold change vs veh, SLC12A2 / RFU, IBTK / Fold change vs veh, IBTK / RFU, ESF1 / Fold change vs veh, ESF1 / Fold change vs veh, TMEM50B / RFU, TAOK1 / Fold change vs veh, TAOK1 / RFU, ACBD3 / Fold change vs veh, ACBD3 / RFU, TMA16 / Fold change vs veh, TMA16 / RFU, RWDD3 / Fold change vs veh, RWDD3 / RFU, BCAT1 / Fold change vs veh, BCAT1 / RFU, EDEM3 / Fold change vs veh, EDEM3 / RFU, TMEM33 / Fold change vs veh, TMEM33 / RFU, WDR75 / Fold change vs veh, WDR75 / RFU, AHCTF1 / Fold change vs veh, AHCTF1 / RFU, TFRC / Fold change vs veh, TFRC / RFU, ZDHHC17 / Fold change vs veh, ZDHHC17 / RFU, NOM1 / Fold change vs veh, NOM1 / RFU, ARL8B / Fold change vs veh, ARL8B / RFU, ZBTB11 / Fold change vs veh, ZBTB11 / RFU, TAMM41 / Fold change vs veh, TAMM41 / RFU, KIAA1704 /// LOC100996395 / Fold change vs veh, KIAA1704 /// LOC100996395 / RFU, ING1 / Fold change vs veh, ING1 / RFU, TRMT61B / Fold change vs veh, TRMT61B / RFU, FUBP3 / Fold change vs veh, FUBP3 / RFU, TP53 / Fold change vs veh, TP53 / RFU, TNKS2 / Fold change vs veh, TNKS2 / RFU, ZFP14 / Fold change vs veh, ZFP14 / RFU, ACTR2 / Fold change vs veh, ACTR2 / RFU, PPP3R1 / Fold change vs veh, PPP3R1 / RFU, PIK3R1 / Fold change vs veh, PIK3R1 / RFU, HNRNPA1 / Fold change vs veh, HNRNPA1 / RFU, RNF170 / Fold change vs veh, RNF170 / RFU, ZNF28 / Fold change vs veh, ZNF28 / RFU, RNGTT / Fold change vs veh, RNGTT / RFU, OGT / Fold change vs veh, OGT / RFU, BRD1 / Fold change vs veh, BRD1 / RFU, MARS / Fold change vs veh, MARS / RFU, ZNF655 / Fold change vs veh, ZNF655 / RFU, FAHD1 / Fold change vs veh, FAHD1 / RFU, BDP1 / Fold change vs veh, BDP1 / RFU, LRRCC1 / Fold change vs veh, LRRCC1 / RFU, ARID1A / Fold change vs veh, ARID1A / RFU, ZNF146 / Fold change vs veh, ZNF146 / RFU, ZNF330 / Fold change vs veh, ZNF330 / RFU, GPN3 / Fold change vs veh, GPN3 / RFU, C9orf123 / Fold change vs veh, C9orf123 / RFU, N4BP2L2 / Fold change vs veh, N4BP2L2 / RFU, ARFIP1 / Fold change vs veh, ARFIP1 / RFU, FAM179B / Fold change vs veh, FAM179B / RFU, BCL10 / Fold change vs veh, BCL10 / RFU, UHRF1BP1L / Fold change vs veh, UHRF1BP1L / RFU, BET1 / Fold change vs veh, BET1 / RFU, CNOT2 / Fold change vs veh, CNOT2 / RFU, ZNF268 / Fold change vs veh, ZNF268 / Fold change vs veh, ZNF507 / RFU, DGCR2 / Fold change vs veh, DGCR2 / RFU, WDSUB1 / Fold change vs veh, WDSUB1 / Fold change vs veh, HSP90B1 /// MIR3652 / RFU, ADSS / Fold change vs veh, ADSS / RFU, GK / Fold change vs veh, GK / RFU, ZNF148 / Fold change vs veh, ZNF148 / RFU, TAF9 / Fold change vs veh, TAF9 / RFU, SLC1A5 / Fold change vs veh, SLC1A5 / RFU, SLMO2 / Fold change vs veh, SLMO2 / RFU, ABCC4 / Fold change vs veh, ABCC4 / RFU, LOC101060439 /// RAP1B / Fold change vs veh, LOC101060439 /// RAP1B / RFU, RFX7 / Fold change vs veh, RFX7 / RFU, GTPBP10 / Fold change vs veh, GTPBP10 / RFU, CNEP1R1 / Fold change vs veh, CNEP1R1 / RFU, BIVM-ERCC5 /// ERCC5 / Fold change vs veh, BIVM-ERCC5 /// ERCC5 / RFU, ILF3 / Fold change vs veh, ILF3 / RFU 11762660_at / Fold change /veh 11762660_at / RFU VCAN (11757783_s_at) / Fold change /veh VCAN (11757783_s_at) / RFU DDX43 (11728927_at) / Fold change /veh DDX43 (11728927_at) / RFU KRT8 (11758188_x_at) / Fold change /veh KRT8 (11758188_x_at) / RFU NKD1 (11759106_at) / Fold change /veh NKD1 (11759106_at) / RFU SRD5A1 (11742802_a_at) / Fold change /veh SRD5A1 (11742802_a_at) / RFU TPSAB1 /// TPSB2 (11721975_s_at) / Fold change /veh TPSAB1 /// TPSB2 (11721975_s_at) / RFU GSTM3 (11746129_a_at) / Fold change /veh GSTM3 (11746129_a_at) / RFU IL23R (11737362_x_at) / Fold change /veh IL23R (11737362_x_at) / RFU TMEM51 (11727254_a_at) / Fold change /veh TMEM51 (11727254_a_at) / RFU PIWIL2 (11732686_x_at) / Fold change /veh PIWIL2 (11732686_x_at) / RFU ORM1 (11744905_x_at) / Fold change /veh ORM1 (11744905_x_at) / RFU CCDC152 (11743942_at) / Fold change /veh CCDC152 (11743942_at) / RFU ECM1 (11717891_a_at) / Fold change /veh ECM1 (11717891_a_at) / RFU IL23R (11748794_a_at) / Fold change /veh IL23R (11748794_a_at) / RFU TNFAIP8L3 (11732012_x_at) / Fold change /veh TNFAIP8L3 (11732012_x_at) / RFU MBOAT4 (11741988_at) / Fold change /veh MBOAT4 (11741988_at) / RFU 11764193_at / Fold change /veh 11764193_at / RFU TMEM53 (11763286_at) / Fold change /veh TMEM53 (11763286_at) / RFU MAGEB2 (11727129_at) / Fold change /veh MAGEB2 (11727129_at) / RFU TMEM200A (11744735_a_at) / Fold change /veh TMEM200A (11744735_a_at) / RFU CCDC152 (11751479_a_at) / Fold change /veh CCDC152 (11751479_a_at) / RFU FAM211A (11726209_a_at) / Fold change /veh FAM211A (11726209_a_at) / RFU RGS16 (11746705_a_at) / Fold change /veh RGS16 (11746705_a_at) / RFU VCAN (11755009_s_at) / Fold change /veh VCAN (11755009_s_at) / RFU RHOB (11743442_s_at) / Fold change /veh RHOB (11743442_s_at) / RFU RGS16 (11720943_a_at) / Fold change /veh RGS16 (11720943_a_at) / RFU RGS16 (11720944_at) / Fold change /veh RGS16 (11720944_at) / RFU, VPS4B / Fold change vs veh, VPS4B / RFU, CREB1 / Fold change vs veh, CREB1 / RFU, DNAJC13 / Fold change vs veh, DNAJC13 / RFU, GNAQ / Fold change vs veh, GNAQ / RFU, CDK5R1 / Fold change vs veh, CDK5R1 / RFU, ZRANB3 / Fold change vs veh, ZRANB3 / RFU, CUL4A / Fold change vs veh, CUL4A / RFU, CCNY / Fold change vs veh, CCNY / RFU, UFL1 / Fold change vs veh, UFL1 / RFU, COG3 / Fold change vs veh, COG3 / RFU, DIAPH2 / Fold change vs veh, DIAPH2 / RFU, SKA2 / Fold change vs veh, SKA2 / RFU, AFF3 / Fold change vs veh, AFF3 / RFU, LMF1 / Fold change vs veh, LMF1 / RFU, IPO11 / Fold change vs veh, IPO11 / RFU, DFFB / Fold change vs veh, DFFB / RFU, FOXP1 / Fold change vs veh, FOXP1 / RFU, CARD8 / Fold change vs veh, CARD8 / RFU, STRN3 / Fold change vs veh, STRN3 / RFU, ADK / Fold change vs veh, ADK / RFU, RASSF2 / Fold change vs veh, RASSF2 / RFU, WIPF1 / Fold change vs veh, WIPF1 / RFU, LARP1B / Fold change vs veh, LARP1B / RFU, RASA1 / Fold change vs veh, RASA1 / RFU, RB1 / Fold change vs veh, RB1 / RFU, PPFIA1 / Fold change vs veh, PPFIA1 / RFU, MAT2A / Fold change vs veh, MAT2A / RFU, CCT5 / Fold change vs veh, CCT5 / RFU, WDR92 / Fold change vs veh, WDR92 / RFU, CUX1 / Fold change vs veh, CUX1 / RFU, TTC7A / Fold change vs veh, TTC7A / RFU, TMEM135 / Fold change vs veh, TMEM135 / RFU, DEPTOR / Fold change vs veh, DEPTOR / RFU, CPM / Fold change vs veh, CPM / RFU, DNAJB6 / Fold change vs veh, DNAJB6 / RFU, CACNA2D3 / Fold change vs veh, CACNA2D3 / RFU, DTX4 / Fold change vs veh, DTX4 / RFU, TFCP2 / Fold change vs veh, TFCP2 / RFU, GMCL1 /// GMCL1P1 / Fold change vs veh, GMCL1 /// GMCL1P1 / RFU, AEBP2 / Fold change vs veh, AEBP2 / RFU, SNHG1 /// SNORD22 /// SNORD25 /// SNORD26 /// SNORD27 /// SNORD28 /// SNORD29 /// SNORD31 / Fold change vs veh, SNHG1 /// SNORD22 /// SNORD25 /// SNORD26 /// SNORD27 /// SNORD28 /// SNORD29 /// SNORD31 / Fold change (Aza/veh), C12orf56 (ProbeSet 11735607_a_at) / Fold change (ACY-1035/veh), C12orf56 (ProbeSet 11735607_a_at) / Fold change (Aza/veh), FGFR1OP (ProbeSet 11751329_s_at) / Fold change (ACY-1035/veh), FGFR1OP (ProbeSet 11751329_s_at) / Fold change (Aza/veh), VPS36 (ProbeSet 11739960_a_at) / Fold change (ACY-1035/veh), VPS36 (ProbeSet 11739960_a_at) / RFU SYPL1 (11715823_x_at) / Fold change /veh SYPL1 (11715823_x_at) / RFU IGFBP7 (11715501_s_at) / Fold change /veh IGFBP7 (11715501_s_at) / RFU REEP3 (11722064_at) / Fold change /veh REEP3 (11722064_at) / RFU IGLL1 (11728026_x_at) / Fold change /veh IGLL1 (11728026_x_at): dose or concentration left out as unconfirmed. The settings on record: ProbeSet 11725100_s_at; LIST B.

The structures appear in SMILES notation.

Consider `Nc1ccc(-c2cccs2)cc1NC(=O)c1ccc2c(c1)cc(C1CC1)n2CCN1CCOCC1` [ACY-1035], for which the “Fold change vs veh, ESF1” value amounted to 0.88.
